Reference: patent US20150166667A1, “METHODS AND COMPOSITIONS FOR TREATING CANCER” (RAMOT AT TEL-AVIV UNIVERSITY LTD., priority 2012, published 2015)

Assays:
[1] = system: primary keratinocytes and fibroblasts; test: 3D skin organotypic coculture, epidermal differentiation; format: cell-based, mice; settings: for expression of K14 (marker of proliferating keratinocytes) / expression of the differentiation markers Keratin-1 and Loricrin: immunohistochemistry, 10^-6M insulin or 10^-7M IGF1, FIG. 3B
Protocol: Primary keratinocytes and fibroblasts were isolated from WT mice, and organotypic cocultures were plated. Immediately afterwards, 10^−6M insulin or 10^−7M IGF1 was added to the growth medium and maintained throughout the experiment. Coculture inserts were further processed; H&E staining of a tissue section is shown. The effects of insulin and IGF1 on differentiation of human keratinocytes were tested in a 3-dimensional organotypic skin co-culture. In this model system, primary murine or human keratinocytes were plated on top of a fibroblast-containing collagen gel dermal equivalent. Within a few days under proper growth conditions, the 3D-organotypic coculture became organized, mimicking the histological structure of the skin tissue in vivo, including the skin epidermal layers as well as keratin formation. By mimicking the natural tissue architecture, such conditions enable keratinocytes to recapitulate their tissue-specific differentiation program in vitro.

keratin 1 = test: Keratin 1 assembly in differentiating skin cells (insoluble fraction, Western blot); format: cell-based, mice; settings: cells induced to differentiate in presence of insulin or IGF1; FIG. 19
Protocol: Primary skin cells were isolated from the SIRKO and IR (lox/lox) control mice and grown in culture. On day 3, the calcium concentration in the growth medium was raised from 0.05 mM to 0.12 mM to induce differentiation, and the culture was further maintained. On day 6, cells were harvested. To evaluate the effects of IR inactivation on the state of keratin filaments, cell lysates were fractionated into a Triton X-100-soluble fraction, containing the elementary keratin units, and a Triton-insoluble fraction, containing the mature keratin filaments. Western blot analysis was carried out on these fractions to estimate the amount of K1 present in each fraction, using Actin content as a loading control. […] A representative experiment of 4 repeats is depicted in the figures.

human HaCaT skin cells = test: In vitro scratch closure assay, HaCaT cells with IR inactivated by siRNA; format: cell-based; settings: FIG. 6B
Protocol: (§1) Insulin and IGF1 treatment: Primary murine keratinocytes were grown for 6 days in culture. On the day of the experiment insulin (10^−6M) or IGF-1 (10^−7M) were added, after which a scratch was made by a micropipette tip (day 0). In some of the plates, proliferation was inhibited by adding 25 microgram/ml mitomycin C, 4 hours prior to culture wounding. In another set of experiments (E-F) insulin receptor was inactivated by siRNA in human HaCaT skin cells. The effects of insulin and IGF1 were measured as described above. In all experiments digital photos were taken at day 0 and 24 hours later (day 1), from which 20 randomly chosen photos were taken from each treatment group and further analyzed to determine the average remaining scratch width.
(§2) The effect of insulin on skin cell migration was assessed using an in vitro scratch closure assay. Keratinocytes were grown to confluency, were left untreated or were treated with insulin or IGF-1, in the absence (6A; top panel) or presence (6A; bottom panel) of mitomycin C. The cell layer was scratched by a tip, and the degree of closure was subsequently measured. The amount of migration of control cells in each group (with or without mitomycin C) was assigned the value 100%. The average of 4 separate experiments is depicted. […] Similar results were obtained in human HaCaT skin cells in which the insulin receptor was inactivated by siRNA.

SCC Cal 27 cells = test: Proliferation of SCC Cal 27 cells by thymidine incorporation; format: cell-based, human; settings: serum starved cells, 24 hours; FIG. 15C
Protocol: SCC Cal 27 cells were grown in culture to 70% confluency. The cells were serum starved for 24 hours after which a blocking anti IR antibody (Thermo Scientific; Insulin Receptor (α-Subunit) Ab-3 (Clone 47-9); Cat. #MS-633-PABX) was added at the concentrations indicated, with or without insulin as indicated, and the cells were incubated further for 24 hours.
Left, center, and right bars are insulin, 10 nM, and 20 nM respectively. […] In each case, results were normalized to control groups. The P values for 10 nM and 20 nM are as follows: control vs 10 nM Ab: p=8.616 E-5; control vs 20 nM Ab: p=1.745 E-5; control vs 10 nM Ab+insulin: p=0.00072; control vs 20 nM Ab+insulin: p=0.00558.

[2] = system: primary murine keratinocytes; test: In vitro scratch closure assay, primary murine keratinocytes; format: cell-based
Protocol: as §1, §2

p21 (WAF1/Cip1) = p21 (WAF1/Cip1) expression in Ha-Ras infected keratinocytes, Western blot; format: cell-based, mouse; settings: control cells, TPA 100 nM for 24 hr, FIG. 10A
Protocol: Primary mouse keratinocytes derived from control and IR-KO mice were infected with Ha-Ras, and 24 hr later were treated with TPA [100 nM] or vehicle for 24 hr. Expression of p21 (WAF1/Cip1) was evaluated by Western blot analysis, using a polyclonal antibody. Localization of p21 in the cells was examined by staining for DAPI and p21 (WAF1/Cip1) and visualization using fluorescent microscopy.

IGF1
expression of K14 (marker of proliferating keratinocytes) [1]: maintained abnormally in apical layers
expression of the differentiation markers Keratin-1 and Loricrin [1]: delayed expression
assembly of K1 (keratin 1 in the insoluble fraction) (keratin 1): opposite effect

insulin
effect on scratch closure in IR-inactivated cells (human HaCaT skin cells): eliminated by IR inactivation
epidermal differentiation by histological analysis ([1]; 10^-6M insulin or 10^-7M IGF1 in growth medium, FIG. 3A): supported epidermal differentiation
expression of K14 (marker of proliferating keratinocytes) [1]: more rapid disappearance
expression of the differentiation markers Keratin-1 and Loricrin [1]: enhanced
SCC cancer cell proliferation with insulin alone (SCC Cal 27 cells): increased the proliferation
effect on scratch closure in presence of mitomycin C ([2]; 25 microgram/ml mitomycin C 4 hours prior to wounding, FIG. 6A bottom): not eliminated
scratch closure ([2]; insulin 10^-6M, IGF-1 10^-7M, 24 hours, absence of mitomycin C, FIG. 6A top): facilitated scratch closure more than IGF
assembly of K1 (keratin 1 in the insoluble fraction) (keratin 1): enhanced assembly of K1

CCCCCCCCCCCCCC(=O)O[C@@H]1[C@@H](C)[C@@]2(O)[C@@H](C=C(CO)C[C@]3(O)C(=O)C(C)=C[C@@H]23)[C@@H]2C(C)(C)[C@]12OC(C)=O [TPA, 12-O-tetradecanoylphorbol-13-acetate]
levels of p21, a marker of cellular senescence (p21 (WAF1/Cip1)): decreased levels of p21
